# According to PubChem BioAssay AID1259407 (Chemical Carcinogenesis Research Information System (CCRIS), 2018):
# Activity calls are given as the source filed them. The rule behind the calls is not given here.
# Tested on: CCRIS mutagenicity, Ames/micronucleus/aberration tests
# Test: CCRIS mutagenicity studies
smiles,measurement,setting,value
C[C@@H]1Cc2c(Cl)cc(C(=O)NC(Cc3ccccc3)C(=O)O)c(O)c2C(=O)O1 (stereo partly specified),mutagenic call,"End Point: IN VITRO CHROMOSOMAL ABERRATIONS, Test System: BOVINE LYMPHOCYTES, Metabolic Activation: NONE",active; positive (structural changes)
same,mutagenic call,"End Point: IN VIVO CHROMOSOMAL ABERRATIONS, Test System: SPLENOCYTES, Species: RAT, Strain/Sex: FISCHER 344/MALE, Route: ORAL (GAVAGE)",inactive; negative
same,mutagenic call,"End Point: In vivo chromosomal aberrations, Test System: Bone marrow cells, Species: Mouse, Strain/Sex: Balb/C / Male, Route: Intraperitoneal",active; positive (structural changes)
same,mutagenic call,"End Point: In vivo micronucleus, Test System: Bone marrow polychromatic erythrocytes, Species: Rat, Strain/Sex: Sprague-Dawley/Male, Route: Oral",active; positive. addition of inula crithmoides extract inhibited the response
same,mutagenic call,"Test System: AMES SALMONELLA TYPHIMURIUM, Strain/Indicator: TA97, Metabolic Activation: HAMSTER, LIVER, S-9, AROCLOR 1254 (10 OR 30%), Method: PREINCUBATION",inactive; negative
same,mutagenic call,"Test System: AMES SALMONELLA TYPHIMURIUM, Strain/Indicator: TA97, Metabolic Activation: HAMSTER, LIVER, S-9, AROCLOR 1254, Method: PREINCUBATION",inactive; negative
same,mutagenic call,"Test System: AMES SALMONELLA TYPHIMURIUM, Strain/Indicator: TA97, Metabolic Activation: NONE, Method: PREINCUBATION",inactive; negative
same,mutagenic call,"Test System: AMES SALMONELLA TYPHIMURIUM, Strain/Indicator: TA97, Metabolic Activation: RAT, LIVER, S-9, AROCLOR 1254 (10 OR 30%), Method: PREINCUBATION",inactive; negative
same,mutagenic call,"Test System: AMES SALMONELLA TYPHIMURIUM, Strain/Indicator: TA97, Metabolic Activation: RAT, LIVER, S-9, AROCLOR 1254, Method: PREINCUBATION",inactive; negative
same,mutagenic call,"Test System: AMES SALMONELLA TYPHIMURIUM, Strain/Indicator: TA97A, Metabolic Activation: NONE, Method: PREINCUBATION",inactive; negative
same,mutagenic call,"Test System: AMES SALMONELLA TYPHIMURIUM, Strain/Indicator: TA97A, Metabolic Activation: RAT LIVER S-9, Method: PREINCUBATION",inactive; negative
same,mutagenic call,"Test System: AMES SALMONELLA TYPHIMURIUM, Strain/Indicator: TA98, Metabolic Activation: HAMSTER, LIVER, S-9, AROCLOR 1254 (10 OR 30%), Method: PREINCUBATION",inactive; negative
same,mutagenic call,"Test System: AMES SALMONELLA TYPHIMURIUM, Strain/Indicator: TA98, Metabolic Activation: HAMSTER, LIVER, S-9, AROCLOR 1254, Method: PREINCUBATION",inactive; negative
same,mutagenic call,"Test System: AMES SALMONELLA TYPHIMURIUM, Strain/Indicator: TA98, Metabolic Activation: HUMAN HEPG2 CELL S-9, Method: PREINCUBATION",inactive; negative
same,mutagenic call,"Test System: AMES SALMONELLA TYPHIMURIUM, Strain/Indicator: TA98, Metabolic Activation: MOUSE KIDNEY S-9, NADP OR ARACHIDONIC ACID (10%), Method: MICROMETHOD",active; positive
same,mutagenic call,"Test System: AMES SALMONELLA TYPHIMURIUM, Strain/Indicator: TA98, Metabolic Activation: MOUSE LIVER S-9 (10%), Method: MICROMETHOD",inactive; negative
same,mutagenic call,"Test System: AMES SALMONELLA TYPHIMURIUM, Strain/Indicator: TA98, Metabolic Activation: NONE, Method: PREINCUBATION",inactive; negative
same,mutagenic call,"Test System: AMES SALMONELLA TYPHIMURIUM, Strain/Indicator: TA98, Metabolic Activation: NONE, Method: STANDARD PLATE",inactive; negative
same,mutagenic call,"Test System: AMES SALMONELLA TYPHIMURIUM, Strain/Indicator: TA98, Metabolic Activation: RAT LIVER S-9, AROCLOR 1254 (10%), Method: MICROMETHOD",inactive; negative
same,mutagenic call,"Test System: AMES SALMONELLA TYPHIMURIUM, Strain/Indicator: TA98, Metabolic Activation: RAT LIVER S-9, Method: PREINCUBATION",inactive; negative
same,mutagenic call,"Test System: AMES SALMONELLA TYPHIMURIUM, Strain/Indicator: TA98, Metabolic Activation: RAT, LIVER, S-9, AROCLOR 1254 (10 OR 30%), Method: PREINCUBATION",inactive; negative
same,mutagenic call,"Test System: AMES SALMONELLA TYPHIMURIUM, Strain/Indicator: TA98, Metabolic Activation: RAT, LIVER, S-9, AROCLOR 1254, Method: PREINCUBATION",inactive; negative
same,mutagenic call,"Test System: AMES SALMONELLA TYPHIMURIUM, Strain/Indicator: TA98, Metabolic Activation: RAT, LIVER, S-9, AROCLOR 1254, Method: STANDARD PLATE",inactive; negative
same,mutagenic call,"Test System: AMES SALMONELLA TYPHIMURIUM, Strain/Indicator: TA100, Metabolic Activation: HAMSTER, LIVER, S-9, AROCLOR 1254 (10 OR 30%), Method: PREINCUBATION",inactive; negative
same,mutagenic call,"Test System: AMES SALMONELLA TYPHIMURIUM, Strain/Indicator: TA100, Metabolic Activation: HAMSTER, LIVER, S-9, AROCLOR 1254, Method: PREINCUBATION",inactive; negative
same,mutagenic call,"Test System: AMES SALMONELLA TYPHIMURIUM, Strain/Indicator: TA100, Metabolic Activation: HUMAN HEPG2 CELL S-9, Method: PREINCUBATION",inactive; negative
same,mutagenic call,"Test System: AMES SALMONELLA TYPHIMURIUM, Strain/Indicator: TA100, Metabolic Activation: NONE, Method: STANDARD PLATE",inactive; negative
same,mutagenic call,"Test System: AMES SALMONELLA TYPHIMURIUM, Strain/Indicator: TA100, Metabolic Activation: RAT LIVER S-9, Method: PREINCUBATION",inactive; negative
same,mutagenic call,"Test System: AMES SALMONELLA TYPHIMURIUM, Strain/Indicator: TA100, Metabolic Activation: RAT, LIVER, MICROSOMES, PHENOBARBITAL, Method: STANDARD PLATE",active; positive
same,mutagenic call,"Test System: AMES SALMONELLA TYPHIMURIUM, Strain/Indicator: TA100, Metabolic Activation: RAT, LIVER, S-9, AROCLOR 1254 (10 OR 30%), Method: PREINCUBATION",inactive; negative
same,mutagenic call,"Test System: AMES SALMONELLA TYPHIMURIUM, Strain/Indicator: TA100, Metabolic Activation: RAT, LIVER, S-9, AROCLOR 1254, Method: PREINCUBATION",inactive; negative
same,mutagenic call,"Test System: AMES SALMONELLA TYPHIMURIUM, Strain/Indicator: TA100, Metabolic Activation: RAT, LIVER, S-9, AROCLOR 1254, Method: STANDARD PLATE",inactive; negative
same,mutagenic call,"Test System: AMES SALMONELLA TYPHIMURIUM, Strain/Indicator: TA100, Metabolic Activation: RAT, LIVER, S-9, PHENOBARBITAL, Method: PREINCUBATION",inactive; negative
same,mutagenic call,"Test System: AMES SALMONELLA TYPHIMURIUM, Strain/Indicator: TA102, Metabolic Activation: NONE, Method: PREINCUBATION",inactive; negative
same,mutagenic call,"Test System: AMES SALMONELLA TYPHIMURIUM, Strain/Indicator: TA102, Metabolic Activation: NONE, Method: STANDARD PLATE",inactive; negative
same,mutagenic call,"Test System: AMES SALMONELLA TYPHIMURIUM, Strain/Indicator: TA102, Metabolic Activation: RAT LIVER S-9, Method: PREINCUBATION",inactive; negative
